Read-outs that look alike come from different tables or passages of the source.
Biological target: T1, SMN Tudor domain (Homo sapiens, UniProt Q16637)
T1 construct: SMN (aa 82–147); His (N, cleaved yes); made in house; host or cells: E. coli BL21 (DE3) Codon plus RIL
Assay: ITC binding to Tudor domain of SMN
Source text: The coding DNA fragments of following Tudor domains were cloned into pET28-MHL vector: SMN (aa 82–147), UHRF1 (aa 126–285), SMNDC1 (aa 53–130), TDRD3 (aa 554–611), SND1 (aa 650–910), TDRD2 (aa 327–420), FXR1 (aa 2–132), PHF1 (aa 28–87), SGF29 (aa 115–293), JMJD2A (aa 897–1101), 53BP1 (aa 1483–1606), SETDB1 (aa 190–410), LBR (aa 1–67), ZGPAT (aa 120–271). The coding regions of chromodomain of CBX7 (aa 8–62), PWWP domain of DNMT3A (aa 275–417), WD40 repeats of WDR5 (aa 24–334) and CW domain of ZCWPW2 (aa 21–78) were also subcloned into pET28-MHL vector to generate N-terminally His-tagged fusion protein. The MBT repeats of L3MBTL1 (aa 200–522) and L3MBTL2 (aa 170–625) were subcloned into pET28GST-LIC vector to generate N-terminally GST-His-tagged fusion protein. All the plasmids were generated by ligase independent cloning (Vazyme Biotech, C112 or ABclonal Technology, RK21020). […] The proteins were further purified by Superdex75 or Superdex200 gel-filtration column (GE Healthcare) in a buffer containing 20 mM Tris-HCl, pH 7.5, 150 mM NaCl and 1 mM DTT. For crystallization experiments, purified proteins were concentrated to 18 mg/mL for SMN, 23 mg/mL for UHRF1 and 10 mg/mL for TDRD3 in the gel-filtration buffer. All the mutations were introduced with the QuikChange II XL site-directed mutagenesis kit (Stratagene, 200522) and confirmed by DNA sequencing. Mutant proteins were also expressed in E. coli BL21 (DE3) Codon plus RIL and purified using the same procedures described above. The molecular weight of all protein samples was measured by mass spectrometry.
For the ITC measurement, the concentrated proteins were diluted into 20 mM Tris-HCl, pH 7.5, 150 mM NaCl (ITC buffer); the lyophilized compounds were dissolved in the same buffer, and the pH value was adjusted by adding 2 M NaOH or 2 M HCl. The compounds that could not be dissolved in the ITC buffer were dissolved in DMSO with the accessible highest concentration. Compound concentrations were calculated from the mass and the volume of the solvent. For the ITC assay with compound dissolved in DMSO, the protein was diluted by ITC buffer containing same final concentration of DMSO. All measurements were performed in duplicate at 25 °C, using a VP-ITC (MicroCal, Inc.), an iTC-200 (MicroCal, Inc.), or a Nano-ITC (TA, Inc.) microcalorimeter. The protein with a concentration of 50–100 μM was placed in the cell chamber, and the compounds with a concentration of 0.5–2 mM in syringe was injected in 25, 20, or 20 successive injections with a spacing of 180, 150, or 120 s for VP-ITC, iTC-200, or Nano-ITC, respectively, as previously described[30]–[32]. iTC-200 or Nano-ITC data were consistent with those from the VP-ITC instrument, based on ITC results of SMN-compound 1 detected by using all the instruments. Control experiments were performed under identical conditions to determine the heat signals that arise from injection of the compounds into the buffer. Data were fitted using the single-site binding model within the Origin software 7.0 package (MicroCal, Inc.) or the independent model within the Nano-Analyze software package (TA, Inc.).

[1] = ITC, Tudor domain of SMN wild type, 25 °C, read-out: Kd (SMN)

T1 sequence (Q16637 82-147): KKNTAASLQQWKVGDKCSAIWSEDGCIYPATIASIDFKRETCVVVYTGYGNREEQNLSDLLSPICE

| SMILES | Kd [1] | Kd (Supplementary Fig. 11a, iTC-200, read-out: Kd, ITC binding curve, SMN) | selectivity of SMN and SMNDC1 Tudor domains over TDRD3 (from ITC Kd) | selectivity over other tested methyllysine or methylarginine binding domains (from ITC Kd) | SMN binds more tightly than its physiological ligands (versus symmetric dimethylarginine or R1810me2s-POLR2A) |
| --- | --- | --- | --- | --- | --- |
| CCCn1c2c(c(=N)c3c1CCC3)CCC2 [Compound 2, 4-propyl-2,3,4,5,6,7-hexahydrodicyclopenta[b,e]pyridin-8(1H)-imine] | 9.3 ± 0.6 µM | – | – | – | – |
| Cn1c2c(c(=N)c3c1CCC3)CCC2 [Compound 1, 4-methyl-2,3,4,5,6,7-hexahydrodicyclopenta[b,e]pyridin-8(1H)-imine] | 2.6 ± 0.1 µM | 3.9 ± 0.5 µM | ~ 4 fold | > 4 fold | 60–180 fold |
